Reference: patent US20180057507A1, “INHIBITORS OF DUAL LEUCINE ZIPPER (DLK) KINASE FOR THE TREATMENT OF DISEASE” (Board of Regents, The University of Texas System, priority 2016, published 2018)

Experiments:
human DLK [1] = target: T1, human DLK (Homo sapiens, UniProt Q12852); test: Phospho-cJun Cellular Assay; type: cell-based; parameters: expressed in transfected cells; details: HEK293 cells stably transfected with Dox-inducible human DLK; p-cJun (Ser63); 5 h compound incubation
T1 sequence (Q12852 1-859): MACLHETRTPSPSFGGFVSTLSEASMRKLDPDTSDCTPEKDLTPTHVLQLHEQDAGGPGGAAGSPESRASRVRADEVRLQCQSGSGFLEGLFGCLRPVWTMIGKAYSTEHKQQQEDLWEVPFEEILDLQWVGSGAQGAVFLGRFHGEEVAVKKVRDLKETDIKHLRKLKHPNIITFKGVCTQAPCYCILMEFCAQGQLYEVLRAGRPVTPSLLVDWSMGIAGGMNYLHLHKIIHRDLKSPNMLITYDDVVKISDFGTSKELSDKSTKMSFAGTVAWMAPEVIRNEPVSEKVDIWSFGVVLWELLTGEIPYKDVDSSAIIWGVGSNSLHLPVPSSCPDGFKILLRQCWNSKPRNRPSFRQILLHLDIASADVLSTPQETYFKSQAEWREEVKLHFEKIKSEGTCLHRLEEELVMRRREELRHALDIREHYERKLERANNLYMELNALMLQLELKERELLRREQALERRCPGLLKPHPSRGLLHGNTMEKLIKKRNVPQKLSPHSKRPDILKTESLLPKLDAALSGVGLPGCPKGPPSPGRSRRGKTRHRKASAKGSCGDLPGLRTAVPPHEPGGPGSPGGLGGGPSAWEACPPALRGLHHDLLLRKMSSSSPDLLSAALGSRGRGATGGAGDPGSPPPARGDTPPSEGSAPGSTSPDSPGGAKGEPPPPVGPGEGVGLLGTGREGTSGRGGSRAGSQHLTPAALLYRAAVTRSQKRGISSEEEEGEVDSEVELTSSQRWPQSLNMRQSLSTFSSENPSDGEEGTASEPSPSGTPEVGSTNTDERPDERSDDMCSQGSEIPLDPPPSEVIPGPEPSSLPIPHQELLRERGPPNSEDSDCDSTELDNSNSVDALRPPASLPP
Procedure: Phospho-cJun Cellular Assay
HEK293 cells stably transfected with a Dox-inducible human DLK were plated into a 384-well plate in 20 μl (40,000 cells/well) of DMEM medium (without phenol red) containing 10% fetal bovine serum, 1.5 μg/ml doxycycline and 1 μg/ml puromycin. The cells as negative control were grown in the absence of doxycycline. The plate was incubated at 37° C., 5% CO2 for 20 h, before DMSO (control) or compounds diluted in medium were added. The cells were incubated at 37° C. for an additional 5 h, followed by lysis and the addition detection antibodies from p-cJun (Ser63) cellular assay kit (Cisbio) per manufacturer protocol. The standard dose response curves were fitted by Genedata Screener software using the variable-slope model: Signal=Signalnegative control+(SignalDMSO control−Signalnegative control)/(1+(IC50/Dose)̂Hill slope). Only signal and dose in the equation were treated as known values.

human DLK [2] = target: T1, human DLK; test: DLK Kd Determinations (KINOMEscan KdELECT, DiscoveRx); parameters: full length of human DLK (amino acids 1-859); host or cells: transiently transfected HEK293 cells; unpurified extract; details: fusion protein of full length human DLK (amino acids 1-859) and NFkB DNA binding domain; qPCR readout; duplicate
How it was run: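 Kd values were fitted by Hill equation (slope −1) from duplicate 11-point 3-fold dilutions starting at 30,000 nM. Bead-immobilized ligand competed with compound for DNA-tagged full-length human DLK fusion in HEK293 extract (final DMSO 0.9%, 1 h, room temperature), with qPCR readout of bound kinase.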

Row | SMILES | IC50 (human DLK [1]) [nM] | Kd (human DLK [2]) [nM]
1 | CC(=O)N1C[C@@H]2[C@H](C1)[C@H]2n1cc(-c2cnc(N)c(C(F)(F)F)c2)nc1C1CC1 [Example 72, 1-((1R,5S,6s)-6-(4-(6-amino-5-(trifluoromethyl)pyridin-3-yl)-2-cyclopropyl-1H-imidazol-1-yl)-3-azabicyclo[3.1.0]hexan-3-yl)ethan-1-one] | 2690 | 69
2 | CC(C)c1nc(-c2cnc(N)c(OC(F)(F)F)c2)cn1[C@H]1[C@@H]2CC(N3CCN(C)CC3)C[C@@H]21 (single isomer, unassigned) [Example 133a, 5-(2-isopropyl-1-(3-(4-methylpiperazin-1-yl)bicyclo[3.1.0]hexan-6-yl)-1H-imidazol-4-yl)-3-(trifluoromethoxy)pyridin-2-amine] | 896 | 20
3 | CC(C)c1nc(-c2cnc(N)c(C(F)(F)F)c2)cn1[C@H]1[C@@H]2CC(N3CCOCC3)C[C@@H]21 (single isomer, unassigned) [Example 127a] | 939 | 52
4 | CC(C)c1nc(-c2cnc(N)c(C(F)(F)F)c2)cn1[C@H]1C[C@@H](N2CCCOCC2)C1 [Example 45, 5-(1-((1s,3s)-3-(1,4-oxazepan-4-yl)cyclobutyl)-2-isopropyl-1H-imidazol-4-yl)-3-(trifluoromethyl)pyridin-2-amine] | 6190 | 340
5 | CC(C)c1nc(-c2cnc(N)c(OC(F)F)c2)cn1[C@H]1[C@@H]2CC(N3CCN(C)CC3)C[C@@H]21 (single isomer, unassigned) [Example 145a, 3-(difluoromethoxy)-5-(2-isopropyl-1-(3-(4-methylpiperazin-1-yl)bicyclo[3.1.0]hexan-6-yl)-1H-imidazol-4-yl)pyridin-2-amine] | 1200 | 39
6 | Nc1ncc(-c2cn([C@H]3[C@@H]4CN(C5COC5)C[C@@H]43)c(CC3CC3)n2)cc1C(F)(F)F [Example 2, 5-(2-(cyclopropylmethyl)-1-((1R,5S,6s)-3-(oxetan-3-yl)-3-azabicyclo[3.1.0]hexan-6-yl)-1H-imidazol-4-yl)-3-(trifluoromethyl)pyridin-2-amine] | 1730 | 46
7 | CC(C)c1nc(-c2cnc(N)c(OC(F)(F)F)c2)cn1C1CC2(CC(N3CCOCC3)C2)C1 (centres unmarked) [Example 39, 5-(2-isopropyl-1-(6-morpholinospiro[3.3]heptan-2-yl)-1H-imidazol-4-yl)-3-(trifluoromethoxy)pyridin-2-amine] | 771 | 30
8 | CN1CCN(C2C[C@@H]3[C@H](C2)[C@H]3n2cc(-c3cnc(N)c(OC(F)(F)F)c3)nc2CC2CC2)CC1 (single isomer, unassigned) [Example 151a, 5-(2-(cyclopropylmethyl)-1-(3-(4-methylpiperazin-1-yl)bicyclo[3.1.0]hexan-6-yl)-1H-imidazol-4-yl)-3-(trifluoromethoxy)pyridin-2-amine] | 994 | 26
9 | CN1CCN(C2C[C@@H]3[C@H](C2)[C@H]3n2cc(-c3cnc(N)c(OC(F)(F)F)c3)nc2CC2CC2)CC1 (single isomer, unassigned) [Example 151b, 5-(2-(cyclopropylmethyl)-1-(3-(4-methylpiperazin-1-yl)bicyclo[3.1.0]hexan-6-yl)-1H-imidazol-4-yl)-3-(trifluoromethoxy)pyridin-2-amine] | 826 | 20
10 | Nc1ncc(-c2cn([C@H]3[C@@H]4CC(N5CCCOCC5)C[C@@H]43)c(C3CC3)n2)cc1OC(F)(F)F (some centres unmarked) [Example 149, 5-(1-(3-(1,4-oxazepan-4-yl)bicyclo[3.1.0]hexan-6-yl)-2-cyclopropyl-1H-imidazol-4-yl)-3-(trifluoromethoxy)pyridin-2-amine] | 574 | 37
11 | CN1CCN(C2C[C@@H]3[C@H](C2)[C@H]3n2cc(-c3cnc(N)c(OC(F)F)c3)nc2C2CC2)CC1 (some centres unmarked) [Example 150, 5-(2-cyclopropyl-1-(3-(4-methylpiperazin-1-yl)bicyclo[3.1.0]hexan-6-yl)-1H-imidazol-4-yl)-3-(difluoromethoxy)pyridin-2-amine] | 1090 | 54
12 | Nc1ncc(-c2cn([C@H]3[C@@H]4CN(CCF)C[C@@H]43)c(CC3CC3)n2)cc1C(F)(F)F [Example 77, 5-(2-(cyclopropylmethyl)-1-((1R,5S,6s)-3-(2-fluoroethyl)-3-azabicyclo[3.1.0]hexan-6-yl)-1H-imidazol-4-yl)-3-(trifluoromethyl)pyridin-2-amine] | 1490 | 17
13 | Nc1ncc(-c2cn([C@H]3[C@@H]4CC(N5CCN(CCF)CC5)C[C@@H]43)c(C3CC3)n2)cc1C(F)(F)F (single isomer, unassigned) [Example 153b, 5-(2-cyclopropyl-1-(3-(4-(2-fluoroethyl)piperazin-1-yl)bicyclo[3.1.0]hexan-6-yl)-1H-imidazol-4-yl)-3-(trifluoromethyl)pyridin-2-amine] | 809 | 9
14 | CC(C)c1nc(-c2cnc(N)c(OC(F)F)c2)cn1[C@H]1[C@@H]2CN(C3COC3)C[C@@H]21 [Example 83, 3-(difluoromethoxy)-5-(2-isopropyl-1-((1R,5S,6s)-3-(oxetan-3-yl)-3-azabicyclo[3.1.0]hexan-6-yl)-1H-imidazol-4-yl)pyridin-2-amine] | 3550 | 160
15 | CC(C)c1nc(-c2cnc(N)c(C(F)(F)F)c2)cn1[C@H]1C[C@@H](N2CCOCC2)C1 [Example 44, 5-(2-isopropyl-1-((1s,3s)-3-morpholinocyclobutyl)-1H-imidazol-4-yl)-3-(trifluoromethyl)pyridin-2-amine] | 7690 | 
16 | Nc1ncc(-c2cn([C@H]3[C@@H]4CC(N5CCN(CCF)CC5)C[C@@H]43)c(CC3CC3)n2)cc1C(F)(F)F (single isomer, unassigned) [Example 162a, 5-(2-(cyclopropylmethyl)-1-(3-(4-(2-fluoroethyl)piperazin-1-yl)bicyclo[3.1.0]hexan-6-yl)-1H-imidazol-4-yl)-3-(trifluoromethyl)pyridin-2-amine] | 1040 | 
17 | CN1CCN(C2C[C@@H]3[C@H](C2)[C@H]3n2cc(-c3cnc(N)c(C(F)(F)F)c3)nc2CC2CC2)CC1 (single isomer, unassigned) [Example 161b, 5-(2-(cyclopropylmethyl)-1-(3-(4-methylpiperazin-1-yl)bicyclo[3.1.0]hexan-6-yl)-1H-imidazol-4-yl)-3-(trifluoromethyl)pyridin-2-amine] | 629 | 
18 | CC(C)c1nc(-c2cnc(N)c(C(F)(F)F)c2)cn1C1CC2(COC2)C1 [Example 23, 5-(2-isopropyl-1-(2-oxaspiro[3.3]heptan-6-yl)-1H-imidazol-4-yl)-3-(trifluoromethyl)pyridin-2-amine] |  | 220
19 | CC(=O)N1C[C@@H]2[C@H](C1)[C@H]2n1cc(-c2cnc(N)c(OC(F)F)c2)nc1CC1CC1 [Example 115, 1-((1R,5S,6s)-6-(4-(6-amino-5-(difluoromethoxy)pyridin-3-yl)-2-(cyclopropylmethyl)-1H-imidazol-1-yl)-3-azabicyclo[3.1.0]hexan-3-yl)ethan-1-one] |  | 200
20 | CC(=O)N1C[C@@H]2[C@H](C1)[C@H]2n1cc(-c2cnc(N)c(OC(F)(F)F)c2)nc1C1CC1 [Example 54, 1-((1R,5S)-6-(4-(6-amino-5-(trifluoromethoxy)pyridin-3-yl)-2-cyclopropyl-1H-imidazol-1-yl)-3-azabicyclo[3.1.0]hexan-3-yl)ethan-1-one] |  | 110
21 | COCCN1C[C@@H]2[C@H](C1)[C@H]2n1cc(-c2cnc(N)c(C(F)(F)F)c2)nc1C(C)C [Example 15, 5-(2-isopropyl-1-((1R,5S,6s)-3-(2-methoxyethyl)-3-azabicyclo[3.1.0]hexan-6-yl)-1H-imidazol-4-yl)-3-(trifluoromethyl)pyridin-2-amine] |  | 210
